The values below are quoted from earlier work in US20070219271A1, “Pharmaceutical Compositions Containing Pufa And At Least One Of An Immunosuppressive Agent Or An Antineoplastic Agent” (Tillotts Pharma AG, priority 2004, published 2007).

Structures are written as SMILES. Where only a bound is given, the exact number is not on record here.

In this data set the test system is human squamous carcinoma line and multidrug-resistant and carboplatin-resistant variants. As to conditions: cells pre-treated with GLA.

In the case of `CCCCC/C=C\C/C=C\C/C=C\CCCCC(=O)O` [GLA, gamma-linoleic acid], the “enhancement of vincristine toxicity” value is recorded as “up to 40%”. For the same compound, the “enhancement of toxicity of carboplatin” value (depending on the concentration of GLA, human squamous carcinoma and carboplatin-resistant variant cell lines) is greater than 50%.
